Laboratory results from ChEMBL document CHEMBL1157437, “Synthesis and biological activities of reveromycin A and spirofungin A derivatives” (Bioorg Med Chem Lett, 2008).
Values after ≈ are worked out from the molar mass of the structure shown.

Tests used:
[1] = target: T1, Isoleucine--tRNA ligase, cytoplasmic (Homo sapiens, UniProt P41252); assay: Inhibition of IleRS
T1 sequence (P41252 whole entry): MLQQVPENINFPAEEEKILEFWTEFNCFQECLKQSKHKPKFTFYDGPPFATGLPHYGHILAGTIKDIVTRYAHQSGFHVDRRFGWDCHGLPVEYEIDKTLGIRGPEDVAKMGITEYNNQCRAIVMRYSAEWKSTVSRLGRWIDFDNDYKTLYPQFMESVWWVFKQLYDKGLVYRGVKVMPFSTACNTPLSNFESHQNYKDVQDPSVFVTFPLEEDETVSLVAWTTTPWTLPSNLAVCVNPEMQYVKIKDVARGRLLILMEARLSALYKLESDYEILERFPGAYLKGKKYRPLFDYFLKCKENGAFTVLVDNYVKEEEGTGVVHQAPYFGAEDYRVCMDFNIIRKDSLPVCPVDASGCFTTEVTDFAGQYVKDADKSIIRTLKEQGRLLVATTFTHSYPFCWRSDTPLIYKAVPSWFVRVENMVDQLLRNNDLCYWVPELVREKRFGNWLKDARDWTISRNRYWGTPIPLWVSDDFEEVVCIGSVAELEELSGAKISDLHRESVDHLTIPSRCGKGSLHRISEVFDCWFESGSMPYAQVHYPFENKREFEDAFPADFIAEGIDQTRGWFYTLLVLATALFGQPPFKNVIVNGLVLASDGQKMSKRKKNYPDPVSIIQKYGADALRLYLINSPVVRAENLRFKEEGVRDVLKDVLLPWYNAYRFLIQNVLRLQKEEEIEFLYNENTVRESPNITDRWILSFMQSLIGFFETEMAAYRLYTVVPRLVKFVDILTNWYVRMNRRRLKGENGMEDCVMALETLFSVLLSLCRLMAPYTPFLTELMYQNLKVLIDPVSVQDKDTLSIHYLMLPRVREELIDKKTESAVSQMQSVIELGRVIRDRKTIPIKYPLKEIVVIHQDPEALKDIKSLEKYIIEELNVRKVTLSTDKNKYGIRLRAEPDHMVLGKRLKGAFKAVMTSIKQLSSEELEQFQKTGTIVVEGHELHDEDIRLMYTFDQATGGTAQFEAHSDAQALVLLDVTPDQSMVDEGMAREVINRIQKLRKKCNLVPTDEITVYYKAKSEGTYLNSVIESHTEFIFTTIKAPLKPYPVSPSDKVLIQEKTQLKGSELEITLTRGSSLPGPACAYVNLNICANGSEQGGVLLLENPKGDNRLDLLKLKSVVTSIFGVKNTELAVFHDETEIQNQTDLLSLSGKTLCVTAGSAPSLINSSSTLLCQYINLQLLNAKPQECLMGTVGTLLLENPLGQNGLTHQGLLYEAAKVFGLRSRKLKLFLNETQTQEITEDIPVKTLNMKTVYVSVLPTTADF

NRK [2] = assay: Effect on morphological reversion in src transformed NRK cells at 30 ug/mL; type: functional; conditions: Rattus norvegicus
NRK [3] = assay: Effect on morphological reversion in src transformed NRK cells at 10 ug/mL; type: functional; conditions: Rattus norvegicus
NRK [4] = assay: Effect on morphological reversion in src transformed NRK cells at 3 ug/mL; type: functional; conditions: Rattus norvegicus
Osteoclast = assay: Induction of apoptosis in mouse osteoclasts; type: functional
NRK [5] = assay: Toxicity against src transformed NRK cells at 100 ug/mL; type: cell-based; conditions: rat
NRK [6] = assay: Effect on morphological reversion in src transformed NRK cells at 100 ug/mL; type: functional; conditions: Rattus norvegicus
NRK [7] = assay: Effect on morphological reversion in src transformed NRK cells at 1 ug/mL; type: functional; conditions: Rattus norvegicus
NRK [8] = assay: Effect on morphological reversion in src transformed NRK cells at 0.3 ug/mL; type: functional; conditions: Rattus norvegicus
NRK [9] = assay: […] morphological reversion in src transformed NRK cells; type: functional, cell-based; conditions: Rattus norvegicus

| Structure (SMILES) | IC50 [1] [nM] | inhibition at 30 µg/mL (NRK [2]) [%] | inhibition at 10 µg/mL (NRK [3]) [%] | inhibition at 3 µg/mL (NRK [4]) [%] | Activity (Osteoclast) [µg/mL] | Activity (NRK [5]) | inhibition at 100 µg/mL (NRK [6]) [%] | inhibition at 1 µg/mL (NRK [7]) [%] | inhibition at 0.3 µg/mL (NRK [8]) [%] | EC50 (NRK [9]) [µg/mL] |
| --- | --- | --- | --- | --- | --- | --- | --- | --- | --- | --- |
| CC(/C=C/[C@H](OC(=O)CCC(=O)O)[C@@H](C)/C=C/C(=O)O)=C\C[C@H]1O[C@@]2(CC[C@H](C)[C@H](/C=C/C(C)=C/C(=O)O)O2)CC[C@@H]1C | > 1660 | < 10 | < 10 | < 10 | 12.4 | Toxic |  |  |  |  |
| CCCC[C@@]1(OC(=O)CCC(=O)O)CC[C@]2(CC[C@H](C)[C@@H](C/C=C(C)/C=C/[C@H](O)[C@@H](C)/C=C/C(=O)O)O2)O[C@H]1/C=C/C(C)=C/C(=O)O [REVEROMYCIN A] | 4.46 | > 80 | 50 | 20 | 0.06 |  | > 80 | 10 | < 10 | 1.58 (≈ 2.39 µM) |
